Experiments:
human PBMCs = experiment: Human PBMC cytokine response assay (IFN-γ and IFN-α in cell-free medium by ELISA), with or without cPLGA; assay type: cell-based;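 on IFN-α (pg/ml) mean: 20 µg/mL compound for 24 hours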;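 on IFN-γ (pg/ml) mean: 20 µg/mL compound for 24 hours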
mouse lung = experiment: Induction of immune-associated genes in the mouse lung after intranasal treatment (quantitative PCR); assay type: in vivo, BALB/c mice; details: 20 ug intranasal, 6 hrs; vs P-7 treated mice
Experimental: The genes evaluated included genes encoding cytokines, chemokines, cell surface molecules, transcription factors, metalloproteases, and other molecules. The study was performed at Northview Pacific Laboratories (Hercules, Calif.) with 6-8 week old female BALB/c mice from Jackson Labs (Bar Harbor, Me.). […] Therefore, at 6 hrs the lungs were harvested and snap-frozen in liquid nitrogen and stored at −80° C. for later use. Total RNA was isolated using RNeasy mini kits (Qiagen Inc., Valencia, Calif.). The RNA samples were DNAse-treated (Roche Diagnostics, Mannheim, Germany) and converted into cDNA using Superscript II Rnase H-Reverse Transcriptase (Invitrogen, Rockville Md.) as described in Scheerens et al., 2001, Eur. J. of Immunology 31:1465-74. The cDNA samples were pooled per group and in each pooled sample the expression of mRNA of 75 genes was measured using real-time quantitative PCR (ABI Prism 5700, Perkin Elmer Applied Biosystems) and syber green (Qiagen Inc.). In addition to the genes of interest, in each sample the mRNA expression of a housekeeping gene was measured (HPRT or ubiquitin). In order to correct for the amount of RNA in each sample, all data were calculated relative to the expression of the housekeeping gene.

mice = experiment: Serum cytokines (IL-12 p40, IL-6, TNF-α) after subcutaneous injection in mice; assay type: in vivo; details: 20 ug subcutaneous
Experimental: Blood was collected 2 hours later. For the LPS positive control group, mice were injected intraperitoneally with a 200 ul volume, and blood was collected 1.5 hours later (i.e., at the peak of LPS induced TNF-α activity). The blood was clotted and the serum was prepared and stored at −80° C. until assayed. Serum cytokines were assayed using Biosource cytoscreen kits for TNF-α and Pharmingen antibody pairs for mIL-6 and mIL-12. All samples were assayed in duplicate.

CD19+ B cells = experiment: Human B cell proliferation assay (3H-thymidine incorporation); details: B cells, 2 μg/ml, Experiment B
[1] = donor 28066, 20 ug/ml, 24 h, + PLGA = premixed with 100 μg/ml cPLGA
[2] = donor 28067, 20 ug/ml, 24 h, + PLGA = premixed with 100 μg/ml cPLGA
[3] = donor 28068, 20 ug/ml, 24 h, + PLGA = premixed with 100 μg/ml cPLGA
[4] = mean of donors 28065-28068, 20 ug/ml, 24 h, + PLGA = premixed with 100 μg/ml cPLGA
[5] = mean of donors 28185-28188, Table 15

Substance: 5′-TCGTCG-3′-HEG-5′-AACGTT-3′-HEG-5′-AGATGAT-3′ [Compound C-23]
- IFN-α (human PBMCs; Table 13, donor 28156): 26 pg/mL
- IFN-γ (human PBMCs; Table 13, donor 28156): 733 pg/mL
- IFN-α (human PBMCs; Table 13, donor 28157): 235 pg/mL
- IFN-γ (human PBMCs; Table 13, donor 28157): 576 pg/mL
- IFN-α (human PBMCs; Table 13, donor 28158): 59 pg/mL
- IFN-γ (human PBMCs; Table 13, donor 28158): 202 pg/mL
- IFN-α (human PBMCs; Table 13, donor 28159): 169 pg/mL
- IFN-γ (human PBMCs; Table 13, donor 28159): 295 pg/mL
- IFN-α mean (human PBMCs; Table 13, mean of donors): 122 pg/mL
- IFN-γ mean (human PBMCs; Table 13, mean of donors): 452 pg/mL
- IFN-γ (pg/ml) 28065 (human PBMCs; donor 28065 (high background), 20 ug/ml, 24 h, + PLGA = premixed with 100 μg/ml cPLGA, 1000 = outside assay limits): 438 pg/mL
- IFN-α (pg/ml) 28065 (human PBMCs; donor 28065, 20 ug/ml, 24 h, + PLGA = premixed with 100 μg/ml cPLGA): 52 pg/mL
- IFN-α (pg/ml) 28066 (human PBMCs; [1]): 3 pg/mL
- IFN-γ (pg/ml) 28066 (human PBMCs; [1]): 5 pg/mL
- IFN-α (pg/ml) 28067 (human PBMCs; [2]): 19 pg/mL
- IFN-γ (pg/ml) 28067 (human PBMCs; [2]): 6 pg/mL
- IFN-α (pg/ml) 28068 (human PBMCs; [3]): 137 pg/mL
- IFN-γ (pg/ml) 28068 (human PBMCs; [3]): 238 pg/mL
- IFN-a (human PBMCs; donor 28185, Table 15): 83 pg/mL
- IFN-g (human PBMCs; donor 28185, Table 15): 42 pg/mL
- IFN-a (human PBMCs; donor 28186, Table 15): 27 pg/mL
- IFN-g (human PBMCs; donor 28186, Table 15): 14 pg/mL
- IFN-a (human PBMCs; donor 28187, Table 15): 59 pg/mL
- IFN-g (human PBMCs; donor 28187, Table 15): 29 pg/mL
- IFN-a (human PBMCs; donor 28188, Table 15): 55 pg/mL
- IFN-g (human PBMCs; donor 28188, Table 15): 3 pg/mL
- IFN-α (pg/ml) mean (human PBMCs; [4]): 53 pg/mL
- IFN-γ (pg/ml) mean (human PBMCs; [4]): 172 pg/mL
- IFN-a (pg/ml) mean (human PBMCs; [5]): 56 pg/mL
- IFN-g (pg/ml) mean (human PBMCs; [5]): 22 pg/mL
- IFN-a (pg/ml) ×2 (human PBMCs; mean ×2, Table 15): 112 pg/mL
- IFN-g (pg/ml) ×4 (human PBMCs; mean ×4, Table 15): 88 pg/mL
- mRNA expression of immune-associated genes in the lung, in words (mouse lung): potently induce the expression of a variety of genes
- potency in serum cytokine induction compared with other compounds, in words (mice): more potent than C-9 and P-6
- induction of serum IL-12 p40, IL-6 and TNF-α, in words (mice; blood 2 hours later): induced IL-12 p40, IL-6, and TNF-α
- cpm1 (CD19+ B cells; donor 121): 10628 cpm
- cpm2 (CD19+ B cells; donor 121): 16221 cpm
- cpm3 (CD19+ B cells; donor 121): 20087 cpm
- mean cpm (CD19+ B cells; donor 121 mean): 15645 cpm
- cpm1 (CD19+ B cells; donor 194): 8730 cpm
- cpm2 (CD19+ B cells; donor 194): 6532 cpm
- cpm3 (CD19+ B cells; donor 194): 9596 cpm
- mean cpm (CD19+ B cells; donor 194 mean): 8286 cpm
- mean of both (CD19+ B cells; mean of donors 121 and 194): 11966 cpm

— patent US9028845B2, “Chimeric immunomodulatory compounds and methods of using the same-IV” (Dynavax Technologies Corporation, priority 2001, dated 2015)
